Source: ChEMBL document CHEMBL1201862, “PubChem BioAssay data set” (2004)
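96-well plates; 48 h exposure; 5 concentrations. Endpoints by linear interpolation between flanking doses. Not reached: highest tested concentration assigned. GI50 is the concentration that inhibits growth by half.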 The source made the active and inactive calls. No stated cut-off is given here; in the data, active = GI50 up to about 1.1 µM and inactive = higher.

Tests used:
Experiment in all cases: inhibition of tumour cell growth, NCI panel, 48 h
SNB-19 = tested on: SNB-19
NCI/ADR-RES = tested on: NCI/ADR-RES
MCF7 = tested on: MCF7
SF-268 = tested on: SF-268
NCI-H226 = tested on: NCI-H226
NCI-H460 = tested on: NCI-H460
HOP-62 = tested on: HOP-62
HCC 2998 = tested on: HCC 2998
Malme-3M = tested on: Malme-3M
BT-549 = tested on: BT-549
OVCAR-3 = tested on: OVCAR-3
HOP-92 = tested on: HOP-92
NCI-H23 = tested on: NCI-H23
NCI-H522 = tested on: NCI-H522
KM12 = tested on: KM12
SF-295 = tested on: SF-295
RXF 393 = tested on: RXF 393
M14 = tested on: M14
OVCAR-4 = tested on: OVCAR-4
SK-MEL-2 = tested on: SK-MEL-2

SMILES | GI50 (SNB-19) | GI50 (NCI/ADR-RES) | GI50 (MCF7) | GI50 (SF-268) | GI50 (NCI-H226) | GI50 (NCI-H460) | GI50 (HOP-62) | GI50 (HCC 2998) | GI50 (Malme-3M) | GI50 (BT-549) | GI50 (OVCAR-3) | GI50 (HOP-92) | GI50 (NCI-H23) | GI50 (NCI-H522) | GI50 (KM12) | GI50 (SF-295) | GI50 (RXF 393) | GI50 (M14) | GI50 (OVCAR-4) | GI50 (SK-MEL-2)
O=c1[nH]nc(-c2ccccc2)c2[nH]c3c(c12)CCCc1ccccc1-3 | 10.7 µM (inactive) | 12.4 µM (inactive) | 19.6 µM (inactive) | 24.9 µM (inactive) | 16.1 µM (inactive) | 16 µM (inactive) | 19.3 µM (inactive) | 14.8 µM (inactive) | 11.8 µM (inactive) | 20.7 µM (inactive) | 19.3 µM (inactive) | 13.3 µM (inactive) | 52.2 µM (inactive) | 7.69 µM (inactive) | 10.2 µM (inactive) | 20.7 µM (inactive) | 15.6 µM (inactive) | 16.8 µM (inactive) | 12.9 µM (inactive) | 
COC1C(=O)CCC2(CO2)C1(O)C1(C)OC1CCC(C)C (stereo not drawn) | 34.2 µM (inactive) | > 100 µM (inactive) | 54.8 µM (inactive) | 78.3 µM (inactive) | > 100 µM (inactive) | < 0.01 µM (active) | 54.5 µM (inactive) | 47.2 µM (inactive) | 30.2 µM (inactive) | > 100 µM (inactive) | > 100 µM (inactive) | > 100 µM (inactive) | 22.6 µM (inactive) | > 100 µM (inactive) | 10.2 µM (inactive) | 13.6 µM (inactive) | > 100 µM (inactive) | 20.1 µM (inactive) | > 100 µM (inactive) | 
O=C1c2ccccc2-c2[nH]c3cn[nH]c(=O)c3c21 | > 100 µM (inactive) | > 100 µM (inactive) | 43.9 µM (inactive) | 99.1 µM (inactive) | 78.7 µM (inactive) | 64.9 µM (inactive) | 82 µM (inactive) |  | > 100 µM (inactive) | > 100 µM (inactive) | > 100 µM (inactive) | 16.4 µM (inactive) | > 100 µM (inactive) | 13.4 µM (inactive) | > 100 µM (inactive) | > 100 µM (inactive) |  | > 100 µM (inactive) | > 100 µM (inactive) | 47.2 µM (inactive)
COc1ccc(/C=C2\CN(C)CC3C2=NN(c2ccccc2)C3c2ccc(OC)cc2)cc1 (stereo not drawn) | 27.2 µM (inactive) | > 100 µM (inactive) | > 100 µM (inactive) | > 100 µM (inactive) | > 100 µM (inactive) | > 100 µM (inactive) | 38 µM (inactive) | > 100 µM (inactive) | 41.7 µM (inactive) | > 100 µM (inactive) | > 100 µM (inactive) | 28 µM (inactive) | > 100 µM (inactive) | 72.9 µM (inactive) | > 100 µM (inactive) | 62.2 µM (inactive) | 13 µM (inactive) | 27.2 µM (inactive) | > 100 µM (inactive) | 
O=C(/C=C/c1ccccc1)c1cc(CN2CCOCC2)c(O)c(CN2CCOCC2)c1 | 94 µM (inactive) | 25.5 µM (inactive) | 14.7 µM (inactive) | 19.1 µM (inactive) | 26.6 µM (inactive) | 6.71 µM (inactive) | 16.8 µM (inactive) | 18.6 µM (inactive) |  | 28 µM (inactive) | 12.2 µM (inactive) | 12.1 µM (inactive) | 22.5 µM (inactive) | > 100 µM (inactive) | 15.5 µM (inactive) | 19.1 µM (inactive) | 14.1 µM (inactive) | 17.9 µM (inactive) |  | 23.4 µM (inactive)
